{"source": "paper PMC12439166", "about": "“Dietary flavonoids form supramolecular assemblies, alter biochemistry, and enhance cell resilience” (Frontiers in Nutrition, 2025)", "system": "human fibroblasts", "assay": "TMT proteomics of fibroblasts with and without UV exposure, differential expression and pathway analysis", "format": "cell-based", "details": "result in words", "method": "Human fibroblasts were obtained from Cell Applications Inc (Cat. # 106-05a) and were maintained in Dulbecco’s Modified Eagle medium (DMEM, Corning, Cat. #10-013-CV) with 10% fetal bovine serum (Gibco, Cat. #10082147) and 1% penicillin/streptomycin (Gibco, Cat. # 15070-063) in a humidified incubator with 5% CO2 at 37 °C. For ultraviolet radiation, fibroblasts were seeded in a 96-well plate at a density of 25,000 cells/well and maintained at 37 °C for 24 h. Cells were washed once with Hanks’ balanced salt solution (HBSS, Gibco, Cat. #14025-092), then treated for 1 h with different concentrations of compounds prepared in HBSS. Vitamin C (Sigma, Cat. # A5960) served as a positive control. Treated cells were exposed to ultraviolet light (UVP cross-linker, CL1000, 254 nm UV, 8 watts) at a total dose of 20 mJ/cm^2. Following irradiation, the HBSS was replaced with culture medium containing the same concentration of compounds as before irradiation, and cells were again maintained at 37 °C. Cell viability was measured at 24 h post-irradiation using CellTiter-Glo according to the manufacturer’s instructions (Promega, Cat.# G7571). Results were expressed as relative cell viability (%) with respect to control cells (cells without ultraviolet irradiation or compound treatment).\nFrozen cell pellets were dissolved for 15 min in 6M Guanidinium Chloride at room temperature to lyse cells. Then, each solution was run on a 10 kDa filter (Pall, TX) and washed with 50 μL of TEAB buffer at 3000 rpm. FASP Digestion ([56]): A stock solution of Trypsin Platinum, Mass Spec Grade (Promega) at 100 μg/mL in 50 mM TEAB, and a specific volume of stock trypsin was added to each sample vial for each set of […] using a 1:50 ratio (Trypsin:Protein). Samples were incubated for 2 h at 50 °C and shaken/mixed at 350 rpm on an Eppendorf ThermoMixer C. TMT Labeling: Samples, now peptides, were labeled using 4 μL of TMTpro Mass Tag Labels (ThermoScientific). After labeling, samples were then shaken/mixed for 45 min to ensure labels were covalently bonded to peptides. The labeling reaction was quenched for 10 min using 1 μL of 5% hydroxyalamine. After quenching, samples were pooled into one 2 mL Eppendorf tube and then dried down using an Eppendorf Vacufuge Plus. Desalting Samples: Dried samples were resuspended in 300 μL of 0.1% TFA in ultrapure HPLC-grade water and vortexed to ensure full solubility. Samples were then desalted using Pierce^TM Peptide Desalting Spin Columns (ThermoScientific). Final eluates (desalted samples) contained 600 μL of 50% HPLC-grade Acetonitrile and 50% ultrapure HPLC-grade water. Desalted samples were then transferred to HPLC vials and were again dried down. […]"}
{"smiles": "O=c1c(O[C@@H]2O[C@H](CO)[C@@H](O)[C@H](O)[C@H]2O)c(-c2ccc(O)c(O)c2)oc2cc(O)cc(O)c12", "note": "[isoquercitrin]", "values": [{"measurement": "proteins/pathways up- and downregulated, exposed to UV radiation", "setting": "UV-irradiated cells", "result": "upregulation of collagen and cell cycle/DNA repair proteins while downregulating proteins associated with autophagy, necroptosis, ferroptosis, lysosomal degradation, and other pathways"}, {"measurement": "proteins/pathways up- and downregulated, without UV treatment", "setting": "control conditions without UV", "result": "upregulated proteins associated with DNA repair pathways and downregulated inflammatory pathways"}]}
